Target: T1, T1R2 with G protein α-subunits (α15 and α16/Z chimeric protein) (Mus musculus, UniProt Q925I4, E350G/G527D/P352R/R175Q)
T1 construct: expressed in transfected cells; host or cells: 293 cells, RCB 1637 (human embryonic kidney)
T1 sequence (Q925I4 20-843 R175Q/E350G/P352R/G527D): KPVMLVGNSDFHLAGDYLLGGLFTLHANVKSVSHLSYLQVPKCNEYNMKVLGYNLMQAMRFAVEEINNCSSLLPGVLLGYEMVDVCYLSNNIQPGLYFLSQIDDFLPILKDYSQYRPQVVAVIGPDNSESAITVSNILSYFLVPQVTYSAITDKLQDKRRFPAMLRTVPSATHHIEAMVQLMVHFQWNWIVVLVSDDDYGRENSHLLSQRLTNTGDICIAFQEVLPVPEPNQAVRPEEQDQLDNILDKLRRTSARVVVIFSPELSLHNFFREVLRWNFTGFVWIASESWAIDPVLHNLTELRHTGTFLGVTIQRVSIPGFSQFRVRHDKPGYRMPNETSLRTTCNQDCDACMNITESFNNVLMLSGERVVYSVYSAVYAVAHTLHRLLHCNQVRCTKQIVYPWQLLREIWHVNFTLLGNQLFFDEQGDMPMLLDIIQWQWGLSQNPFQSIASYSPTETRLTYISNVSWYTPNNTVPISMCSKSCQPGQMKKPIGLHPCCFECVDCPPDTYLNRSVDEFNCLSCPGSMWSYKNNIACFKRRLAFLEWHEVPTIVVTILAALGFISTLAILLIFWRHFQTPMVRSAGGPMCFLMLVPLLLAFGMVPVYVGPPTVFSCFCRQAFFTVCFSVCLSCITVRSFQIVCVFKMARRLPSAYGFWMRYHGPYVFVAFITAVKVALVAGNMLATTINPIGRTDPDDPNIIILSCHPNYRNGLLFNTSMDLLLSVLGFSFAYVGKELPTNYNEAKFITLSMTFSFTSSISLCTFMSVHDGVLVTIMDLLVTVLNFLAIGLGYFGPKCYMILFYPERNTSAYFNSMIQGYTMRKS
Assay: Intracellular calcium ion assay, 293 cells coexpressing G protein α-subunits and T1R2
Format: cell-based
Details: 293 cells: T1R2 + G protein α-subunits; 0.67 ml of 1 M saccharide solution added to 2 ml cell suspension; FLUO-4 AM
Description: The coexpression vector for the G protein α-subunit α15 and the G protein α16/Z chimeric protein (hereinafter designated as “G protein α-subunits”) obtained in Example 1-3 was gene transferred to 293 cells, RCB 1637, a human embryonic kidney cell line, available from the Riken Bioresource Center, Ibaraki, Japan, by conventional lipofection. The gene transferred cells were suspended in Dulbecco's Modified Eagle's Medium (D-MEM) supplemented with 1 mg/L of “PUROMYCIN”, a trade mane of puromycin commercialized by Edge Biosystems, MD, USA, and 10% (v/v) of fetal calf serum to give a cell density of 2×10^6 cells/ml and cultured in a plastic petri dish for cell culture. […]
The captioned reactivity test was conducted according to a conventional intracellular calcium ion assay: 293 Cells prepared in Example 3, capable of coexpressing the G protein α-subunits and the sweet taste receptor(s), were cultured in a plastic petri dish for cell culture until reaching its confluent phase. […] Two milliliters of the resultant cell suspension was injected into a glass cuvette, commercialized by Hitachi, Ltd., Tokyo, Japan, and analyzed on “HITACHI 650-40”, a fluorescence spectrophotometer commercialized by Hitachi, Ltd., Tokyo, Japan. […]

Influx of calcium ion	Compound
Negative	OC[C@H]1O[C@@](CO)(O[C@H]2O[C@H](CO)[C@@H](O)[C@H](O)[C@H]2O)[C@@H](O)[C@@H]1O [Sucrose, reference compound]
Negative	OC[C@H]1O[C@H](O[C@H]2O[C@H](CO)[C@@H](O)[C@H](O)[C@H]2O)[C@H](O)[C@@H](O)[C@@H]1O [Trehalose]
